{"source": "patent US20200276154A1", "about": "“COMPOSITION FOR PROMOTING ADIPOCYTE DIFFERENTIATION OR ADIPONECTIN, COMPRISING TRIMETHOXY PHENYL COMPOUND” (AMOREPACIFIC CORPORATION, priority 2017, published 2020)", "format_in_all_cases": "cell-based, human", "key": {"hSCFs": {"test_system": "hSCFs", "test": "Quantitative analysis of adipocyte differentiation by Oil Red O (ORO) staining", "conditions": "14 days differentiation, compared with KA 400 μM, CA 60 μM, GC 30 μM", "protocol": "Human subcutaneous fat cells (hereinafter, hSCFs) and a subcutaneous preadipocyte differentiation medium were purchased from ZenBio Inc. (NC, USA). The cells were cultured in a humidified 5% CO2 incubator for 7 days.\nTo induce differentiation, the hSCFs were cultured further for 14 days in a Dulbecco's modified Eagle's medium (DMEM; Lonza, MD, USA) supplemented with 10% fetal bovine serum (FBS, PAA, Pasching, Austria), 10 μg/mL insulin (Sigma-Aldrich, MO, USA), 0.5 mM 3-isobutyl-1-methylxanthine (IBMX; Sigma-Aldrich, St. Louis, Mo., USA), 1 μM dexamethasone (DEX, Sigma-Aldrich, St. Louis, Mo., USA) and 1 μM troglitazone (Sigma-Aldrich, St. Louis, Mo., USA) while replacing the medium every other day.\nThe hSCFs cultured in Example 1 were differentiated for a total of 14 days by treating with a composition containing PAC-2 at various concentrations (μM) or with KA (400 μM), CA (60 μM) or GC (30 μM) as positive control groups. Then, after washing twice with cold PBS (phosphate-buffered saline), the cells were fixed in 3.7% formaldehyde (Sigma-Aldrich, St. Louis, Mo., USA) for 1 hour. The fixed hSCFs were washed with 60% propylene glycol (Sigma-Aldrich, St. Louis, Mo., USA) in PBS and were treated with Oil Red 0 (0.3% Oil Red 0 in 60% propylene glycol; Sigma-Aldrich, St. Louis, Mo., USA) for 30 minutes. The cells were washed with 85% propylene glycol thrice and then rinsed with tap water. […]"}, "[1]": {"test_system": "adiponectin (Adipoq) mRNA in hSCFs", "test": "mRNA expression of adiponectin by real-time quantitative PCR (RT-qPCR)", "conditions": "compared with positive control groups KA 400 μM, CA 60 μM, GC 30 μM", "protocol": "Total RNA was extracted by treating the hSCFs cultured in Example 1 with a composition containing PAC-2 at various concentrations (μM) or KA (400 μM), CA (60 μM) and GC (30 μM) as positive control groups using a TRIzol reagent (Life Technologies, Carlsbad, Calif., USA) according to the manufacturer's instructions. 1 μg of total RNA was utilized to synthesize complementary DNAs (cDNAs) using the RevertAid first strand cDNA synthesis kit (Thermo Scientific, Pittsburgh, Pa., USA). About 1 μg of the cDNA sample and each TaqMan® probe (Life Technologies, Carlsbad, Calif., USA) were diluted in a reaction mixture of the Quantitect probe PCR kit (QIAGEN, Valencia, Calif., USA) and PCR was conducted using the 7500 fast real-time PCR system (Life Technologies, Carlsbad, Calif., USA). The TaqMan® probe was glyceraldehyde-3-phosphate dehydrogenase (GAPDH; Part #4352339E). All data were acquired from three independent experiments and are presented as fold changes relative to the GAPDH control group."}, "[2]": {"test_system": "secreted adiponectin from hSCFs", "test": "Quantitative analysis of adiponectin production by ELISA", "conditions": "culture medium, compared with positive control groups KA 400 μM, CA 60 μM, GC 30 μM", "protocol": "The hSCFs cultured in Example 1 were treated with KA (400 μM), CA (60 μM) or GC (30 μM) as positive control groups or a composition containing PAC-2 at various concentrations. The culture medium was collected and centrifuged at 13,000 rpm for 15 minutes to remove any debris. The secreted adiponectin was measured using an adiponectin ELISA kit (Enzo Life Sciences, Farmingdale, N.Y., USA) according to the manufacturer's instructions."}}}
{"smiles": "COc1cc(/C=C/C(=O)OCc2cc(=O)c(O)co2)cc(OC)c1OC", "note": "[PAC-2, 3-(3,4,5-trimethoxyphenyl)-acrylic acid 5-hydroxy-4-oxo-4H-pyran-2-ylmethyl ester]", "values": [{"measurement": "number of Oil Red O stained cells", "setting": "hSCFs; 25 μM", "result": "remarkably increased number of stained cells"}, {"measurement": "number of Oil Red O stained cells", "setting": "hSCFs; 50 μM", "result": "remarkably increased number of stained cells"}, {"measurement": "mRNA expression level of adiponectin", "setting": "[1]; 25 μM", "result": "≥ 3", "unit": "times"}, {"measurement": "mRNA expression level of adiponectin", "setting": "[1]; 50 μM", "result": "≥ 5", "unit": "times"}, {"measurement": "amount of the secreted adiponectin", "setting": "[2]; 25 μM", "result": "≥ 3", "unit": "times"}, {"measurement": "amount of the secreted adiponectin", "setting": "[2]; 50 μM", "result": "≥ 7", "unit": "times"}]}
